Measurements from publication PMC9854712 (Antioxidants, 2023).

What was measured:
DU-145 cells = test: MTT cell viability assay, DU-145; format: cell-based; conditions: for viability at 10 µM: Homo sapiens, DU-145, 48 h, read-out: Cell growth % at 10 µM, DU-145
Procedure: (§1) The cell lines were obtained from the American Type Culture Collection (ATCC). Five tumor cell lines (MDA-MB-231, MCF-7, HCT116, HTB-54, and DU-145) and two non-tumorigenic cells (184B5 and BEAS-2B) were grown in RPMI 1640 medium (Gibco), and the HT-29 tumor cell line was grown in McCoy’s medium. Both mediums were supplemented with 10% fetal bovine serum (FBS; Gibco) and 1% antibiotics (10.00 units/mL penicillin and 10.00 μg/mL streptomycin; Gibco). Cells were preserved in tissue culture flasks at 37 °C and 5% CO2. The culture medium was replaced every three days.
(§2) The effect of each compound on cell viability was tested using the MTT assay. […] Selected compounds were then tested at seven different concentrations (0.5–100 μM) in MCF-7, HCT116, HT-29, HTB-54, 184B5 and BEAS-2B cells. Cells were seeded at 10^4 per well onto flat-bottomed 96-well culture plates. They were treated with either DMSO or increasing concentration of the corresponding compound for 48 h. Then, they were incubated with 20 μL of 3-(4,5-dimethylthiazol-2-yl)-2,5-diphenyltetrazolium bromide (MTT) (2 mg /mL stock; Aldrich) for 2,5 h and analyzed for their ability to generate a purple formazan dye. These formazan crystals were dissolved in 50 μL of DMSO. The absorbance was measured at a wavelength of 550 nm and the ratio of viable cells was calculated.
(§3) Results are expressed as cell viability % at 10 μM. Selectivity index were calculated as the ratio of the IC50 values determined for the non-malignant and the tumor cells in breast (IC50 (184B5)/IC50 (MCF-7)) and lung (IC50 (BEAS-2B)/IC50 (HTB-54)) cell lines. Data were obtained from at least three independent experiments performed in triplicates.

AChE = biological target: T1, AChE (Rattus norvegicus, UniProt P37136); test: AChE inhibition by Ellman's method (rat frontal cortex homogenate); format: biochemical; conditions: at 10^−6 M, Ellman's method
T1 construct: from tissue; host or cells: frontal cortex of male Wistar rats (crude homogenate)
T1 sequence (P37136 32-614): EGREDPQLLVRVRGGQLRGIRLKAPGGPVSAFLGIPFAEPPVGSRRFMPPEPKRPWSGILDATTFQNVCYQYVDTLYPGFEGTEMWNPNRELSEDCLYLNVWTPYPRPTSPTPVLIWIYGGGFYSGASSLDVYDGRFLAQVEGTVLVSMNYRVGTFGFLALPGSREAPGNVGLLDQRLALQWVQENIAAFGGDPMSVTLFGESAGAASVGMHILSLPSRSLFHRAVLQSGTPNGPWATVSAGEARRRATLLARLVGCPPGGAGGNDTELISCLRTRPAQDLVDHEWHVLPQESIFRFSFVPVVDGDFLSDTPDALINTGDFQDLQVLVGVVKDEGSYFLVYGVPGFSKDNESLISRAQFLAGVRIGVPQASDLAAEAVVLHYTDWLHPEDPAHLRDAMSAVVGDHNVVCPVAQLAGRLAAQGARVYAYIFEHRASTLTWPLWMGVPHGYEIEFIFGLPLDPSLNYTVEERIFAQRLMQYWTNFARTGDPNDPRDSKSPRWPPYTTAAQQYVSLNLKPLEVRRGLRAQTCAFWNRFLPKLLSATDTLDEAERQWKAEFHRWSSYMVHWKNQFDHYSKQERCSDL
Procedure: Frontal cortex tissue obtained from male Wistar rats was homogenized in 39 volumes of 75 mM sodium phosphate buffer (pH 7.4). A mixture of 260 μL containing the compounds assessed, acetylthiocholine iodide and 5 μL tissue homogenate was incubated for 8 min. The reaction was then terminated by adding 50 μL 3% (w/v) sodium dodecyl sulphate followed by 50 μL 0.2% (w/v) 5,5′-dithio-bis(2-nitrobenzoic) acid to produce the yellow anion of 5-thio-2-nitro-benzoic-acid. The extent of the color production was measured spectrophotometrically at 405 nm using Multiskan Ex (Thermo Electron Corporation). […] Results are expressed as the mean ± SD and each experiment was repeated three times.

MDA-MB-231 cells = test: MTT cell viability assay, MDA-MB-231; format: cell-based; conditions: for viability at 10 µM: Homo sapiens, MDA-MB-231, 48 h, read-out: Cell growth % at 10 µM, MDA-MB-231
Procedure: as §1, §2, §3

HT-29 cells = test: MTT cell viability assay, HT-29; format: cell-based; conditions: 48 h; for viability at 10 µM: Homo sapiens, HT-29, 10 µM, read-out: Cell growth % at 10 µM, HT-29
Procedure: as §1, §2, §3

HTB-54 cells = test: MTT cell viability assay, HTB-54; format: cell-based; conditions: 10 µM, 48 h, MTT; for viability at 10 µM: HTB-54, read-out: Cell growth % at 10 µM, HTB-54
Procedure: as §1, §2, §3

## C#CC[Se]C(=O)c1ccccc1Nc1cccc(C(F)(F)F)c1 [Compound 19b]
DU-145 cells
  viability at 10 µM: 25.2 ± 2.2%
AChE
  inhibition at 1 µM: 21.1 ± 2.6%
MDA-MB-231 cells
  viability at 10 µM: 92.8 ± 10.2%
HT-29 cells
  viability at 10 µM: 61.6 ± 9.8%
HTB-54 cells
  viability at 10 µM: 43.6 ± 18.4%

## C=CC[Se]C(=O)c1cccnc1 [Compound 7a, Se-allyl pyridine-3-carboselenoate]
DU-145 cells
  viability at 10 µM: 51.7 ± 9.8%
AChE
  inhibition at 1 µM: 13.6 ± 5.5%
MDA-MB-231 cells
  viability at 10 µM: 35.3 ± 6.4%
HT-29 cells
  viability at 10 µM: 64.3 ± 14.1%
HTB-54 cells
  viability at 10 µM: 22 ± 5.1%

## C=CC[Se]C(=O)c1cccnc1Cl [Compound 8a, Se-allyl 2-chloropyridine-3-carboselenoate]
DU-145 cells
  viability at 10 µM: 49.5 ± 6.6%
AChE
  inhibition at 1 µM: 6.3 ± 4.1%
MDA-MB-231 cells
  viability at 10 µM: 37.1 ± 4.7%
HT-29 cells
  viability at 10 µM: 62.2 ± 16.1%
HTB-54 cells
  viability at 10 µM: 25.8 ± 5.2%

## C#CC[Se]C(=O)Cc1c(C)n(C(=O)c2ccc(Cl)cc2)c2ccc(OC)cc12 [Compound 17b, Se-prop-2-ynyl 2-(1-(4-chlorobenzoyl)-5-methoxy-2-methyl-1H-indol-3-yl)ethaneselenoate]
DU-145 cells
  viability at 10 µM: 19.2 ± 4%
AChE
  inhibition at 1 µM: 23 ± 6.7%
MDA-MB-231 cells
  viability at 10 µM: 59.1 ± 11.5%
HT-29 cells
  viability at 10 µM: 66.3 ± 10.2%
HTB-54 cells
  viability at 10 µM: 85.9 ± 5.1%

## C#CC[Se]C(=O)[C@@H](C)c1ccc2cc(OC)ccc2c1 [Compound 16b, Se-prop-2-ynyl (S)-2-(6-methoxynaphthalen-2-yl)propaneselenoate]
DU-145 cells
  viability at 10 µM: 66.4 ± 4.4%
AChE
  inhibition at 1 µM: 16.2 ± 2.3%
MDA-MB-231 cells
  viability at 10 µM: 29.8 ± 9.6%
HT-29 cells
  viability at 10 µM: 65.7 ± 10%
HTB-54 cells
  viability at 10 µM: > 100%

## C#CC[Se]C(=O)c1cccnc1 [Compound 7b, Se-prop-2-ynyl pyridine-3-carboselenoate]
DU-145 cells
  viability at 10 µM: 54.6 ± 4.5%
AChE
  inhibition at 1 µM: 24.9 ± 2.2%
MDA-MB-231 cells
  viability at 10 µM: 91.3 ± 8.3%
HT-29 cells
  viability at 10 µM: > 100%
HTB-54 cells
  viability at 10 µM: 91.4 ± 6.6%

## C#CC[Se]C(=O)c1ccccc1OC(C)=O [Compound 14b, 2-(prop-2-ynylselanyl)carbonylphenylacetate]
DU-145 cells
  viability at 10 µM: 25.5 ± 6.2%
AChE
  inhibition at 1 µM: 21.1 ± 5.2%
MDA-MB-231 cells
  viability at 10 µM: 52.3 ± 7.1%
HT-29 cells
  viability at 10 µM: 65.6 ± 7.3%
HTB-54 cells
  viability at 10 µM: 78.9 ± 9%

## C#CC[Se]C(=O)c1cccs1 [Compound 9b, Se-prop-2-ynyl thiophene-2-carboselenoate]
DU-145 cells
  viability at 10 µM: 22.3 ± 2.7%
AChE
  inhibition at 1 µM: 20.6 ± 2.7%
MDA-MB-231 cells
  viability at 10 µM: 70.2 ± 6.9%
HT-29 cells
  viability at 10 µM: 76 ± 13.5%
HTB-54 cells
  viability at 10 µM: 58.9 ± 7.8%

## Se-prop-2-ynyl 3a,7a-dihydrobenzo[d][1,3]dioxole-5-carboselenoate [Compound 4b]
DU-145 cells; 48 h
  Cell growth % at 10 µM, DU-145: 19.7 ± 2.2%
AChE
  % AChE Inhibition: 16.5 ± 10.6%
MDA-MB-231 cells; 48 h
  Cell growth % at 10 µM, MDA-MB-231: 62.6 ± 7.4%
HT-29 cells; 10 µM
  Cell growth % at 10 µM, HT-29: 50.6 ± 7.8%
HTB-54 cells
  Cell growth % at 10 µM, HTB-54: 57.8 ± 8.1%

## C#CC[Se]C(=O)c1ccccc1O [Compound 13b, Se-prop-2-ynyl 2-hydroxybenzoselenoate]
DU-145 cells
  viability at 10 µM: 26.8 ± 5.5%
AChE
  inhibition at 1 µM: 21.5 ± 9.5%
MDA-MB-231 cells
  viability at 10 µM: 52.3 ± 7.9%
HT-29 cells
  viability at 10 µM: 70.2 ± 13.2%
HTB-54 cells
  viability at 10 µM: 82.1 ± 7.6%

## C=CC[Se]C(=O)c1ccccc1Cl [Compound 3a, Se-allyl 2-chlorobenzoselenoate]
DU-145 cells
  viability at 10 µM: 39.8 ± 6.3%
AChE
  inhibition at 1 µM: 21.5 ± 7.5%
MDA-MB-231 cells
  viability at 10 µM: 29.7 ± 6.4%
HT-29 cells
  viability at 10 µM: 63.2 ± 16.9%
HTB-54 cells
  viability at 10 µM: 37.5 ± 7.3%

## C=CC[Se]C(=O)CCc1ccccc1 [Compound 6a, Se-allyl 3-phenylpropaneselenoate]
DU-145 cells
  viability at 10 µM: 26.9 ± 4.4%
AChE
  inhibition at 1 µM: 18.7 ± 12.4%
MDA-MB-231 cells
  viability at 10 µM: 35.9 ± 2.6%
HT-29 cells
  viability at 10 µM: 63.7 ± 12.3%
HTB-54 cells
  viability at 10 µM: 36.3 ± 7%

## C#CC[Se]C(=O)c1ccccc1 [Compound 2b, Se-prop-2-ynyl benzoselenoate]
DU-145 cells
  viability at 10 µM: 72.9 ± 13.6%
AChE
  inhibition at 1 µM: 26.9 ± 7.3%
MDA-MB-231 cells
  viability at 10 µM: 79.3 ± 18.7%
HT-29 cells
  viability at 10 µM: 78.3 ± 6.9%
HTB-54 cells
  viability at 10 µM: 78.3 ± 11.4%
